Assay results published in the supplement of paper PMC5908809.

Experiments:
[1] = tested on: normal NK cells expanded with K562-aAPC; assay: percent inhibition of viability; higher = more inhibition; conditions: 72 h, IL-2 2.5 ng/mL
Description: (§1)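 Drug sensitivity and resistance testing on K562-aAPC-expanded normal NK cells: 5 concentrations (10-fold steps over a 10,000-fold range), 72 h at 37 °C, viability by CellTiter-Glo normalised to DMSO and benzethonium chloride controls; DSS from the fitted curve.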

[2] = tested on: DERL-7 (IL-2 2.5 ng/mL); assay: as above; conditions: 72 h
[3] = tested on: IMC-1 (IL-2 20 ng/mL); assay: as above; conditions: 72 h
[4] = tested on: KAI3 (IL-2 2.5 ng/mL); assay: as above; conditions: 72 h
[5] = tested on: KHYG-1 (IL-2 2.5 ng/mL); assay: as above; conditions: 72 h
[6] = tested on: NK-92 (IL-2 2.5 ng/mL); assay: as above; conditions: 72 h
[7] = tested on: NK-YS (IL-2 2.5 ng/mL); assay: as above; conditions: 72 h
[8] = tested on: NKL (IL-2 2.5 ng/mL); assay: as above; conditions: 72 h
[9] = tested on: SNK-6 (IL-2 2.5 ng/mL); assay: as above; conditions: 72 h
[10] = tested on: YT (IL-2 2.5 ng/mL); assay: as above; conditions: 72 h
[11] = tested on: normal primary NK cells, pool 1 (3 donors) (IL-2 2.5 ng/mL); assay: as above; conditions: 72 h
[12] = tested on: normal primary NK cells, pool 1 (3 donors), resting (IL-2 0 ng/mL); assay: as above; conditions: 72 h
[13] = tested on: normal primary NK cells, pool 2 (3 donors) (IL-2 2.5 ng/mL); assay: as above; conditions: 72 h
[14] = tested on: normal primary NK cells, pool 3 (3 donors) (IL-2 2.5 ng/mL); assay: as above; conditions: 72 h
[15] = tested on: normal NK cells expanded with K562-aAPC; assay: drug sensitivity score (DSS) (DSS units); higher = more sensitive; extreme values may be limits of the assay; conditions: 72 h; IL-2 2.5 ng/mL
Description: as §1

[16] = tested on: DERL-7 (IL-2 2.5 ng/mL); assay: as above; conditions: 72 h
[17] = tested on: IMC-1 (IL-2 20 ng/mL); assay: as above; conditions: 72 h
[18] = tested on: KAI3 (IL-2 2.5 ng/mL); assay: as above; conditions: 72 h
[19] = tested on: KHYG-1 (IL-2 2.5 ng/mL); assay: as above; conditions: 72 h
[20] = tested on: NK-92 (IL-2 2.5 ng/mL); assay: as above; conditions: 72 h
[21] = tested on: NK-YS (IL-2 2.5 ng/mL); assay: as above; conditions: 72 h
[22] = tested on: NKL (IL-2 2.5 ng/mL); assay: as above; conditions: 72 h
[23] = tested on: SNK-6 (IL-2 2.5 ng/mL); assay: as above; conditions: 72 h
[24] = tested on: YT (IL-2 2.5 ng/mL); assay: as above; conditions: 72 h
[25] = tested on: normal primary NK cells, pool 1 (3 donors) (IL-2 2.5 ng/mL); assay: as above; conditions: 72 h
[26] = tested on: normal primary NK cells, pool 1 (3 donors), resting (IL-2 0 ng/mL); assay: as above; conditions: 72 h
[27] = tested on: normal primary NK cells, pool 2 (3 donors) (IL-2 2.5 ng/mL); assay: as above; conditions: 72 h
[28] = tested on: normal primary NK cells, pool 3 (3 donors) (IL-2 2.5 ng/mL); assay: as above; conditions: 72 h

Cn1cc(C2=C(c3cn(C4CCN(Cc5ccccn5)CC4)c4ccccc34)C(=O)NC2=O)c2ccccc21 [Enzastaurin] (max concentration tested 10000 nM)
percent inhibition of viability [%]
Conditions | 1 nM | 10 nM | 100 nM | 1000 nM | 10000 nM
[1] | -2.11 | 0.83 | 0.77 | 6.44 | 4.35
[2] | 1.51 | -3.14 | -1.37 | -1.66 | 38.9
[3] | -6.89 | 3.57 | 0.18 | 12 | 33.1
[4] | -2.12 | 1.12 | -3.1 | -5.65 | 1.6
[5] | 0.22 | 1.8 | 5.25 | 15.6 | 19
[6] | 5.42 | 5.65 | -7.08 | -10.9 | 14.2
[7] | 0.58 | 2.87 | 5.54 | 3.28 | 8.57
[8] | -10.8 | -1.53 | 6.99 | 9.21 | 4.11
[9] | -2.07 | -1.57 | 11 | -2.69 | 14.5
[10] | 0.21 | 3.25 | 5.09 | 4.05 | 16.4
[11] | 2.52 | -11.7 | -6.73 | -14.6 | -7.58
[12] | 3.14 | -9.37 | -6.91 | -38.3 | -57.7
[13] | -9.8 | 0.84 | 10.8 | -7.31 | 23.3
[14] | -14.8 | -5.85 | 0.91 | -0.47 | 24.4

Conditions | drug sensitivity score
[15] | 0
[16] | 1.77
[17] | 3.17
[18] | 0
[19] | 2
[20] | 0.06
[21] | 0
[22] | 0
[23] | 0.12
[24] | 0.24
[25] | 0
[26] | 0
[27] | 0.55
[28] | 0.87

CN(N=O)C(=O)N[C@@H](C=O)[C@@H](O)[C@H](O)[C@H](O)CO [Streptozocin] (max concentration tested 10000 nM)
percent inhibition of viability [%]
Conditions | 1 nM | 10 nM | 100 nM | 1000 nM | 10000 nM
[1] | -0.04 | 4.41 | 2.61 | 7.51 | 13.9
[2] | -4.65 | -4.39 | -0.36 | -4.36 | -9.4
[3] | -3 | -1.77 | 1.49 | 5.01 | 21.2
[4] | -8.8 | -7.24 | -7.83 | -15.1 | -3.23
[5] | -0.99 | -4.93 | 2.57 | -0.52 | 4.73
[6] | -10.2 | -0.49 | -2.54 | -2.99 | -3.48
[7] | -3.08 | -5.94 | 5.25 | -5.62 | 10.8
[8] | -22.4 | -14.9 | -15.8 | -16.6 | -9.59
[9] | 4.98 | 18.1 | 36.6 | 23.4 | 36.7
[10] | -1.12 | -3.14 | 1.58 | -0.51 | 9.38
[11] | -0.38 | -7.4 | -2.69 | -9.47 | -1.13
[12] | -9.25 | -22.8 | -15.8 | -38.7 | -21.4
[13] | -14.4 | -2.41 | 1.68 | -6.8 | -12.2
[14] | -12.8 | -5.88 | -5.23 | -3.37 | -3

Conditions | drug sensitivity score
[15] | 0.16
[16] | 0
[17] | 1.35
[18] | 0
[19] | 0
[20] | 0
[21] | 0
[22] | 0
[23] | 12.4
[24] | 0
[25] | 0
[26] | 0
[27] | 0
[28] | 0

O=C(CCCCCCC(=O)Nc1ccc([C@H]2O[C@@H](CSc3nc(-c4ccccc4)c(-c4ccccc4)o3)C[C@@H](c3ccc(CO)cc3)O2)cc1)NO [Tubacin] (max concentration tested 10000 nM)
percent inhibition of viability [%]
Conditions | 1 nM | 10 nM | 100 nM | 1000 nM | 10000 nM
[1] | -0.3 | 4.86 | 3.67 | 7.82 | 40.4
[2] | -2.36 | 4.2 | 7.74 | 19.8 | 86.6
[3] | -1.32 | 0.91 | 3.12 | 6.34 | 99
[4] | -2.25 | -0.51 | -0.15 | 12 | 87.7
[5] | -2.84 | -3.16 | 1.24 | 0.88 | 84.9
[6] | -7.58 | 4.48 | 12.8 | 18.2 | 74.3
[7] | -6.18 | -3.18 | -0.57 | 4.16 | 93.2
[8] | -14.5 | -0.93 | -1.27 | 28.3 | 86.2
[9] | -5.06 | 2.23 | 22.3 | 16.9 | 89.8
[10] | 0.56 | 0.68 | 3.58 | 5.84 | 88.3
[11] | 2.38 | 1.13 | 3.02 | -4.6 | 47.5
[12] | -6.72 | -11.8 | 5.02 | -11.8 | 77.7
[13] | -4.13 | -4.61 | 0.44 | 0.6 | 24
[14] | -6.56 | -3.63 | 5.33 | -0.47 | 15.8

Conditions | drug sensitivity score
[15] | 3.3
[16] | 7.93
[17] | 6.44
[18] | 6.87
[19] | 4.84
[20] | 6.62
[21] | 5.76
[22] | 8.82
[23] | 7.71
[24] | 5.78
[25] | 2.14
[26] | 3.59
[27] | 0.95
[28] | 0.27

C[C@]12CC[C@@H]3c4ccc(O)cc4C[C@@H](CCCCCCCCC[S+]([O-])CCCC(F)(F)C(F)(F)F)[C@H]3[C@@H]1CC[C@@H]2O (stereo not given in full) [Fulvestrant] (max concentration tested 1000 nM)
percent inhibition of viability [%]
Conditions | 0.1 nM | 1 nM | 10 nM | 100 nM | 1000 nM
[1] | -7.38 | -10.5 | -9.28 | -0.53 | 6.13
[2] | -6.65 | 4.87 | 1.14 | -1.33 | 2.61
[3] | -8.22 | -3.8 | -1.67 | -1.37 | 16.7
[4] | -10.2 | -0.09 | 8.43 | 5.9 | 26.5
[5] | -10.8 | -4.41 | -2.37 | -6.26 | 7.16
[6] | -8.22 | -4.79 | -0.7 | -0.61 | 35.1
[7] | -4.05 | -5.76 | -3.52 | 0.56 | 15.3
[8] | -3.73 | 1.23 | 1.02 | 9.49 | 38.2
[9] | -16.9 | 6.87 | -25.7 | -23.9 | -13.9
[10] | -6.18 | 3.96 | 7.53 | -1.76 | 28.7
[11] | -3.4 | -8.82 | 2.76 | -0.05 | -2.99
[12] | 7.52 | -6.84 | 15.3 | 7.9 | 31.3
[13] | -0.86 | -4.87 | 4.79 | 2.49 | 3.75
[14] | 6.08 | 3.62 | 2.89 | -5.25 | -3.36

Conditions | drug sensitivity score
[15] | 0
[16] | 0
[17] | 0.29
[18] | 1.68
[19] | 0
[20] | 1.6
[21] | 0.29
[22] | 3.35
[23] | 0
[24] | 1.09
[25] | 0
[26] | 2.33
[27] | 0
[28] | 0

CN(Cc1cnc2nc(N)nc(N)c2n1)c1ccc(C(=O)N[C@@H](CCC(=O)O)C(=O)O)cc1 [Methotrexate] (max concentration tested 5000 nM)
percent inhibition of viability [%]
Conditions | 0.5 nM | 5 nM | 50 nM | 500 nM | 5000 nM
[1] | -3.65 | -3.48 | -3.07 | 34 | 31.4
[2] | 1.41 | 1.81 | -8.11 | 43.7 | 51.8
[3] | -3.79 | 5.79 | 72.9 | 95.6 | 97.3
[4] | 2.61 | 9.06 | 73.1 | 86.4 | 80.6
[5] | 1.68 | 0.21 | 95.2 | 104 | 99.2
[6] | -11.1 | 6.17 | 69.3 | 84 | 80.7
[7] | 7.63 | 4.28 | 83.5 | 93 | 87.1
[8] | -5.39 | -6.27 | 40.4 | 61.1 | 58.2
[9] | 2.63 | 21 | 76.8 | 81.2 | 82.7
[10] | 5.17 | 3.44 | 63.8 | 54.4 | 48.9
[11] | -2.85 | -7.99 | 1.44 | -1.93 | -0.84
[12] | -7.95 | -0.85 | 11.4 | 8.67 | 18.2
[13] | -8.41 | -4.79 | -9.59 | -5.9 | -3.72
[14] | -11.3 | -6.43 | -11.2 | -2.82 | -3.84

Conditions | drug sensitivity score
[15] | 5.62
[16] | 7.89
[17] | 26.7
[18] | 25.6
[19] | 29.8
[20] | 24.3
[21] | 27.5
[22] | 16.1
[23] | 27.2
[24] | 20.5
[25] | 0
[26] | 1.25
[27] | 0.89
[28] | 0.89
